Laboratory results: BindingDB's records for doi:10.7270/Q2Q52N1X (Vanderbilt Screening Center for GPCRs, Ion Channels and …, 2009)

Each compound was assayed against T1, Solute carrier family 12 member 5 (Homo sapiens, UniProt Q9H2X9) (assay: concentration-response of KCC2 transport modulators – cell-based, HEK293 KCC2, FluoZin-2 fluorescence, dose response (AID 1736)). Settings: not given.
T1 sequence (Q9H2X9 whole entry): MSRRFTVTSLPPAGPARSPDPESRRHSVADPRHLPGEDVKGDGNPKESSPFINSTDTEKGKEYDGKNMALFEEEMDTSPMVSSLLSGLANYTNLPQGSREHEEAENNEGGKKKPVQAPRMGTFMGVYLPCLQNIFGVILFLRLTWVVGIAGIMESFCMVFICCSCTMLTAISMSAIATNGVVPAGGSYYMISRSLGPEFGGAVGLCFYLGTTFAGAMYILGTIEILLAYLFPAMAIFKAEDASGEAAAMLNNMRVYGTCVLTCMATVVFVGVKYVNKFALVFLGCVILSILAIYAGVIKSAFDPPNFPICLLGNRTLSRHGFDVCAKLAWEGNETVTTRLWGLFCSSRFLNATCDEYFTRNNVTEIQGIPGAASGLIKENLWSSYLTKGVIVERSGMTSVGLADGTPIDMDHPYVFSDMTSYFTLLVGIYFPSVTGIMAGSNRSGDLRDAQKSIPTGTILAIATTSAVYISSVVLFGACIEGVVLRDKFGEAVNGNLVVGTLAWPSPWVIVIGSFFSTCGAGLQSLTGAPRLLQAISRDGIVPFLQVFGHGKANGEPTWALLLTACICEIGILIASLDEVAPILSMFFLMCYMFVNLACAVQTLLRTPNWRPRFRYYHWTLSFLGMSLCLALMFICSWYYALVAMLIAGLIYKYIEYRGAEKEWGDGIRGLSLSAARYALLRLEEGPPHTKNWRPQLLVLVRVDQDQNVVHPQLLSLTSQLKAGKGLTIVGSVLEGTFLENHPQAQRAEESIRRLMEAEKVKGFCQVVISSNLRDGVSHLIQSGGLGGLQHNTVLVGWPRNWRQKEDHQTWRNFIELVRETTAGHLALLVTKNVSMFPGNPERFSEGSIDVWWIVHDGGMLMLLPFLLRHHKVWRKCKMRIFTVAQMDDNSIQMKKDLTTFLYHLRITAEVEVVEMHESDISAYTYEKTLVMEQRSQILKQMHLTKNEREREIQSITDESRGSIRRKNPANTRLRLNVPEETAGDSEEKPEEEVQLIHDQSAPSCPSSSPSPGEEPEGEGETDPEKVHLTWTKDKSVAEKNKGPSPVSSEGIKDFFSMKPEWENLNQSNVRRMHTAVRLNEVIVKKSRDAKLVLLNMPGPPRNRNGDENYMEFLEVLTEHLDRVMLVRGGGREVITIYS
`CN(Cc1ccccc1)c1nc2nonc2nc1N1CCCC(CN2CCCC2=O)C1` (stereo not drawn) [1-[(1-{6-[benzyl(methyl)amino][1,2,5]oxadiazolo[3,4-b]pyrazin-5-yl}piperidin-3-yl)methyl]pyrrolidin-2-one] gave an EC50 of 9050 µM.
`Cc1ccc(NC(=O)c2ccccc2NS(=O)(=O)c2ccc(Cl)s2)cc1` [2-[(5-chloranylthiophen-2-yl)sulfonylamino]-N-(4-methylphenyl)benzamide] was tested, and the EC50 was 1.64 µM.
`CN1C(=O)/C(=C/c2ccccc2OCc2ccccc2)NC1=S` [(5Z)-3-methyl-5-[(2-phenylmethoxyphenyl)methylidene]-2-sulfanylidene-4-imidazolidinone] gave an EC50 of 7.64 µM.
For `O=C(NC1CCCC1)C(c1ccncc1)N(Cc1ccco1)C(=O)c1ccc(-c2ccccc2)[nH]1` (stereo not drawn) [MLS000718066], the EC50 was 6.36 µM.
Work on `Cc1nc2cc(C(F)(F)F)ccc2n1C1CCN(Cc2nnnn2Cc2ccc3c(c2)OCO3)CC1` [1-[1-(1-Benzo[1,3]dioxol-5-ylmethyl-1H-tetrazol-5-ylmethyl)-piperidin-4-yl]-2-methyl-5-trifluoromethyl-1H-benzoimidazole] yielded an EC50 of 16.4 µM.
Compound `CS(=O)(=O)N(CC(=O)N1CCN(c2ccccc2)CC1)c1cccc(Br)c1` [MLS000110474] has an EC50 of 2.43 µM.
For `O=C(NCc1ccc2c(c1)OCO2)c1ccc(COc2cc(Cl)ccc2Cl)o1` [5-[(2,5-dichlorophenoxy)methyl]-N-piperonyl-2-furamide], the EC50 was 6.51 µM.
Work on `O=c1c2ccccc2c(-c2nnc(S)o2)nn1Cc1ccccc1` [2-(phenylmethyl)-4-(2-sulfanylidene-3H-1,3,4-oxadiazol-5-yl)-1-phthalazinone] yielded an EC50 of 3.27 µM.
In the case of `COc1ccccc1N1CCN(C(=S)NC(=O)/C=C/c2ccccc2)CC1` [(E)-N-[4-(2-Methoxy-phenyl)-piperazine-1-carbothioyl]-3-phenyl-acrylamide], the EC50 is reported as 109 µM.
Work on `Cc1ccc(Cn2nnc3c(=O)[nH]c(C4CCN(S(=O)(=O)c5ccc(F)cc5)CC4)nc32)cc1` [5-[1-(4-fluorophenyl)sulfonylpiperidin-4-yl]-3-[(4-methylphenyl)methyl]-2H-triazolo[4,5-d]pyrimidin-7-one] yielded an EC50 of 11.1 µM.
With `O=C(c1cc2c(s1)-c1ccccc1OC2)N1CCC2(CC1)OCCO2` [1,4-dioxa-8-azaspiro[4.5]decan-8-yl(4H-thieno[3,2-c][1]benzopyran-2-yl)methanone] the EC50 was 30.2 µM.
`O=C(O)CCN(Cc1ccccc1)S(=O)(=O)c1c(Cl)cccc1Cl` [3-[(2,6-dichlorophenyl)sulfonyl-(phenylmethyl)amino]propanoic acid] showed an EC50 of 53.1 µM.
`Sc1nnc(COc2ccc(Cl)cc2)o1` [5-(4-Chloro-phenoxymethyl)-3H-[1,3,4]oxadiazole-2-thione] showed an EC50 of 4.06 µM.
In the case of `N#CC(C(=O)c1cccc(F)c1)c1nc2ccccc2s1` (stereo not drawn) [(2Z)-2-(3H-1,3-benzothiazol-2-ylidene)-3-(3-fluorophenyl)-3-keto-propionitrile], the EC50 is reported as 9.66 µM.
`COc1cc(C(=S)N2CCOCC2)cc(OC)c1OC(=O)Cc1ccc(F)cc1` [(2,6-dimethoxy-4-morpholin-4-ylcarbothioyl-phenyl) 2-(4-fluorophenyl)ethanoate] was tested, and the EC50 was 3.98 µM.
For `Cc1nn(C)c(C)c1C=C1SC(S)=NC1=O` [MLS000324943], the EC50 was 1.51 µM.
In the case of `O=C(Nc1cccnc1)c1ccc(COc2ccccc2Br)o1` [5-[(2-bromanylphenoxy)methyl]-N-pyridin-3-yl-furan-2-carboxamide], the EC50 is reported as 5.19 µM.
Work on `O=C(O)/C=C/c1cn(Cc2ccccc2Cl)nc1-c1ccccc1` [(E)-3-[1-(2-chlorobenzyl)-3-phenyl-pyrazol-4-yl]acrylic acid] yielded an EC50 of 2.04 µM.
In the case of `CCOc1ccc2nc(Sc3cc(O)n(-c4cccc(OC)c4)c3O)sc2c1` [3-(6-Ethoxy-benzothiazol-2-ylsulfanyl)-1-(3-methoxy-phenyl)-pyrrolidine-2,5-dione], the EC50 is reported as 9.38 µM.
`Cn1c(CSc2nc3ccccc3s2)nc2ccccc21` [2-(1-Methyl-1H-benzoimidazol-2-ylmethylsulfanyl)-benzothiazole] gave an EC50 of 12.4 µM.
In the case of `COc1ccc(NC(=S)NC(N)=Nc2nc(C)c3ccccc3n2)cc1` [(1E)-1-[amino-[(4-methyl-2-quinazolinyl)amino]methylidene]-3-(4-methoxyphenyl)thiourea], the EC50 is reported as 70.5 µM.
Compound `Cc1c(N=C2Nc3cccc4cccc2c34)c(=O)n(-c2ccccc2)n1C` [4-(2-benzo[cd]indolylamino)-1,5-dimethyl-2-phenyl-3-pyrazolone] has an EC50 of 1.89 µM.
Compound `O=C(NC(=S)Nc1nc(-c2cccc([N+](=O)[O-])c2)cs1)c1ccccc1Cl` [2-chloranyl-N-[[4-(3-nitrophenyl)-1,3-thiazol-2-yl]carbamothioyl]benzamide] has an EC50 of 6.81 µM.
`CCOc1cc(Br)ccc1S(=O)(=O)NCc1ccccc1` [4-bromanyl-2-ethoxy-N-(phenylmethyl)benzenesulfonamide] was tested, and the EC50 was 1.36 µM.
`O=[N+]([O-])c1cc(-n2c(O)c3c(c2O)CCCC3)ccc1NC1CCN(Cc2ccccc2)CC1` [2-[3-nitro-4-[[1-(phenylmethyl)-4-piperidinyl]amino]phenyl]-3a,4,5,6,7,7a-hexahydroisoindole-1,3-dione] showed an EC50 of 5.5 µM.
`CCC(CC)NC(=O)CSc1nnc(-c2c[nH]c3ccccc23)o1` [MLS001017505] gave an EC50 of 334 µM.
`O=C(NN1C(=O)/C(=C/c2nc3ccccc3[nH]2)SC1=S)c1ccccc1Cl` [N-{5-[1-(1H-Benzoimidazol-2-yl)-meth-(Z)-ylidene]-4-oxo-2-thioxo-thiazolidin-3-yl}-2-chloro-benzamide] was tested, and the EC50 was 0.153 µM.
Compound `COC(=O)Cc1[nH]n(-c2nc3ccccc3s2)c(=O)c1C(C)=Nc1ccc(Cl)cc1` [methyl 2-[(4E)-1-(1,3-benzothiazol-2-yl)-4-[1-[(4-chlorophenyl)amino]ethylidene]-5-oxidanylidene-pyrazol-3-yl]ethanoate] has an EC50 of 77.3 µM.
With `O=C(NCc1cccnc1)c1ccc(COc2ccccc2Br)o1` [5-[(2-bromanylphenoxy)methyl]-N-(pyridin-3-ylmethyl)furan-2-carboxamide] the EC50 was 9.14 µM.
`CCN(CC)c1ccc2c(C)c(-c3ccc(N)cc3)c(=O)oc2c1` [3-(4-aminophenyl)-7-(diethylamino)-4-methyl-1-benzopyran-2-one] showed an EC50 of 1.08 µM.
`CCOc1ccc(C(CC(=O)O)NC(=O)C(Sc2ccccc2)c2ccccc2)cc1` (stereo not drawn) [3-(4-ethoxyphenyl)-3-[(2-phenyl-2-phenylsulfanyl-ethanoyl)amino]propanoic acid] was tested, and the EC50 was 13.6 µM.
In the case of `O=C(O)CC/C(=C\c1ccc(N2CCCC2)c([N+](=O)[O-])c1)c1nc2ccccc2s1` [(E)-4-(1,3-benzothiazol-2-yl)-5-(3-nitro-4-pyrrolidin-1-yl-phenyl)pent-4-enoic acid], the EC50 is reported as 29.4 µM.
`NC(=S)NN=C1C(=O)N(Cc2ccc(F)cc2)c2ccccc21` [1-[(Z)-[1-[(4-fluorophenyl)methyl]-2-oxidanylidene-indol-3-ylidene]amino]thiourea] showed an EC50 of 38 µM.
For `O=C(CSc1ccccc1C(=O)NCc1ccccc1)NC12CC3CC(CC(C3)C1)C2`, the EC50 was 5.21 µM.

Same assay, conditions: inactive by the depositor's call
For `CN1C(=CC(=O)C2CCC2)Sc2ccccc21` [(2Z)-1-cyclobutyl-2-(3-methyl-1,3-benzothiazol-2-ylidene)ethanone], the EC50 was 170 µM.
`S=C(NCCc1ccccc1)NCc1cccs1` [1-(2-phenylethyl)-3-(thiophen-2-ylmethyl)thiourea] showed an EC50 of 5.82 µM.
For `CN(C)S(=O)(=O)N(CC(=O)NCCSCc1ccccc1)c1ccccc1` [2-[N-(dimethylsulfamoyl)anilino]-N-[2-(phenylmethylthio)ethyl]acetamide], the EC50 was 18.7 µM.
`CCOC(=O)c1c(C)[nH]c(C)c1C(=O)CSc1nc(N)cc(N)n1` [SMR000063952] was tested, and the EC50 was 1.88 µM.
